Legend:
Type in all cases: cell-based, human
[1] = tested on: Circulating Tumour Cells (CTCs, EpCam+CD45−) from a patient with stage II synovial sarcoma; experiment: Drug response score assay (RealTime-Glo MT / CellTox Green, PCL scaffold) on CTCs from blood, Example 1; set-up: key to Drug response score, conc. 1 / Drug response score, conc. 2 / Drug response score, conc. 3 / Drug response score, conc. 4: normalized drug response metric per Gupta et al. 2020; settings: for Drug response score, conc. 1: conc. 1: Doxo 10 ng/ml, Ifos 0.125 μg/ml, Gemcit 2 μg/ml, Doce 0.02 μg/ml, Carbo 2 μg/ml, Dacarb 1.5 μg/ml, re-dosed at 48 h; for Drug response score, conc. 1 / Drug response score, conc. 2 / Drug response score, conc. 3 / Drug response score, conc. 4: CTCs, t96h; for Drug response score, conc. 2: conc. 2: Doxo 30 ng/ml, Ifos 0.25 μg/ml, Gemcit 10 μg/ml, Doce 0.2 μg/ml, Carbo 5 μg/ml, Dacarb 3 μg/ml; for Drug response score, conc. 3: conc. 3: Doxo 90 ng/ml, Ifos 5 μg/ml, Gemcit 20 μg/ml, Doce 2 μg/ml, Carbo 10 μg/ml, Dacarb 6 μg/ml; for Drug response score, conc. 4: conc. 4: Doxo 270 ng/ml, Ifos 10 μg/ml, Gemcit 40 μg/ml, Doce 10 μg/ml, Carbo 20 μg/ml, Dacarb 12 μg/ml; for Drug sensitivity as calculated by the assay (interpretation of Drug Response Scores): Table 5
Method: (§1) CD45^+ cells and circulating tumour cells (CTCs) were isolated from a blood sample provided by each subject.
(§2) CD45 separation was performed by adding human CD45 microbeads (50 μl/ml blood), incubating for 15 minutes at 4° C. and then processing using an AutoMACS machine. This separates the blood sample into CD45^+ and CD45^−cells in 2 separate falcons. The falcon tubes are then centrifuged at 1200 rpm for 5 minutes.
(§3) The supernatant was removed from the CD45^−falcon tube, and the CD45^−cells contacted with 100 μl of FcR block and 100 μl of CD326 (EpCAM) MicroBeads, followed by incubation at […] 4° C. for 30 minutes. The CD45^−cells were then processed using an AutoMACS machine to separate the EpCAM positive and negative cells into 2 separate falcon tubes. The EpCAM-cells were discarded. The supernatant was removed from the EpCAM^+ cells, and the cells resuspended in DMEM with 2 μl Cell Tox, 2 μl MT and 2 μl MT. 20 μl of the resuspended pellet was then added to all sample wells excluding a blank. After all wells are added to, a cell count was conducted on the […] to determine the number of circulating tumour cells (CTCs).
(§4) The different cell types were each divided equally into populations, depending on the number of drugs/concentrations to be tested and plated on a cell-culture plate pre-coated with a scaffold of polycaprolactone (PCL) electrospun fibres and incubated at 37° C., 5% CO2, for 5 to (typically 10) minutes to facilitate cell attachment. After attachment, an initial imaging step was carried out using the RealTime-Glo™ MT assay from Promega (Catalogue No. G9711)) and the CellTox™ Green Cytotoxicity Assay (Promega, Catalogue No. G8741), carried out according to manufacturer's instructions. Following this initial imagining, the immunotherapeutic and/or chemotherapeutic agents were added to the cell populations as indicated below. After 10 minutes, the imagining step was repeated. The cell populations were then incubated at 37° C., 5% CO2 for 48 hours. The imaging step was then repeated. The cell populations were then re-dosed with the same immunotherapeutic and/or chemotherapeutic agents as indicated below, and incubated at 37° C., 5% CO2 for a further 48 hours. After this second 48 hour incubation, the imagining step was repeated for a final time.
(§5) At the end of this culture period, dose response scores were calculated using a normalized drug response metric as described in Gupta et al. (Communications Biology volume 3, Article number: 42 (2020), https://doi.org/10.1038/s42003-020-0765-z). The start readout for a given immunotherapeutic or chemotherapeutic agent at a given concentration was the to readout for said immunotherapeutic or chemotherapeutic agent at a specified concentration. The end readout for a given immunotherapeutic or chemotherapeutic agent at a given concentration was the final timepoint reading (t96h) for said immunotherapeutic or chemotherapeutic agent at a specified concentration.
(§6) The positive control start readout for a given drug/concentration was the to readout for the corresponding drug at a specified concentration. The positive control end readout for the corresponding drug at a specified concentration was the final timepoint reading (t96h) for the corresponding blank well.
(§7) The negative control start and end readouts for a given immunotherapeutic or chemotherapeutic agent at a given concentration were the to and final timepoint reading (t96h) respectively for blank cell or blank immuno cell well respectively.
The sensitivity or resistance of a subject's cancer to a given immunotherapeutic or chemotherapeutic agent was determined based on the calculated drug response score as shown in Table 2.
Blood samples from a patient with stage II synovial sarcoma (suspected spindle cell tumour) were received and tested using a 6 drug panel.
Chemotherapeutic agents were tested as in Table 3.

[2] = tested on: Circulating Tumour Cells (CTCs) from a patient with renal cancer; experiment: Drug response score assay on CTCs (with CD45+ cells for immunotherapy) from blood, Example 7; set-up: key to Drug response score, conc. 1 / Drug response score, conc. 2 / Drug response score, conc. 3 / Drug response score, conc. 4: normalized drug response metric per Gupta et al. 2020; settings: for Drug response score, conc. 1: conc. 1: Pembr 20 μg/ml (CTCs + CD45+ cells), Docetax 0.02 μg/ml, Gemcit 2 μg/ml, Topo 5 μg/ml, Etop 1 μg/ml, Eribul 5 μg/ml (CTCs); for Drug response score, conc. 1 / Drug response score, conc. 2 / Drug response score, conc. 3 / Drug response score, conc. 4: t96h; for Drug response score, conc. 2: conc. 2: Pembr 40 μg/ml (CTCs + CD45+ cells), Docetax 0.2 μg/ml, Gemcit 10 μg/ml, Topo 10 μg/ml, Etop 4 μg/ml, Eribul 10 μg/ml (CTCs); for Drug response score, conc. 3: conc. 3: Pembr 100 μg/ml (CTCs + CD45+ cells), Docetax 2 μg/ml, Gemcit 20 μg/ml, Topo 50 μg/ml, Etop 20 μg/ml, Eribul 20 μg/ml (CTCs); for Drug response score, conc. 4: conc. 4: Pembr 160 μg/ml (CTCs + CD45+ cells), Docetax 10 μg/ml, Gemcit 40 μg/ml, Topo 100 μg/ml, Etop 100 μg/ml, Eribul 40 μg/ml (CTCs); for Drug sensitivity as calculated by the assay (interpretation of Drug Response Scores): Table 23
Method: as §1, §2
(§8) The supernatant was removed from the CD45^+falcon tube, and the cells resuspended in DMEM with 2 μl Cell Tox, 2 μl MT and 2 μl MT. 20 μl of the resuspended CD45^+ cells was then plated in each well which will contain an immunotherapy treatment.
as §3, §4, §5, §6, §7
(§9) The sensitivity or resistance of a subject's cancer to a given immunotherapeutic or chemotherapeutic agent was determined based on the calculated drug response score as shown in Table 2. […]

[3] = tested on: Circulating Tumour Cells (CTCs) from a patient with head and neck cancer (squamous cell carcinoma); experiment: Drug response score assay on CTCs from blood, Example 6; settings: for Drug response score, conc. 1: conc. 1: Ifos 0.125 μg/ml, Gemcit 2 μg/ml, Doxo 10 ng/ml, Etop 1 μg/ml, Metho 0.5 μg/ml, Capecit 200 μg/ml, Vinor 20 μg/ml; for Drug response score, conc. 1 / Drug response score, conc. 2 / Drug response score, conc. 3 / Drug response score, conc. 4: CTCs, t96h; for Drug response score, conc. 2: conc. 2: Ifos 0.25 μg/ml, Gemcit 10 μg/ml, Doxo 30 ng/ml, Etop 4 μg/ml, Metho 1 μg/ml, Capecit 300 μg/ml, Vinor 40 μg/ml; for Drug response score, conc. 3: conc. 3: Ifos 5 μg/ml, Gemcit 20 μg/ml, Doxo 90 ng/ml, Etop 20 μg/ml, Metho 2 μg/ml, Capecit 400 μg/ml, Vinor 80 μg/ml; for Drug response score, conc. 4: conc. 4: Ifos 10 μg/ml, Gemcit 40 μg/ml, Doxo 270 ng/ml, Etop 100 μg/ml, Metho 4 μg/ml, Capecit 600 μg/ml, Vinor 200 μg/ml; for effectiveness on Circulating Tumour Cells under laboratory conditions / Drug sensitivity as calculated by the assay (interpretation of Drug Response Scores): head and neck cancer CTCs; for Drug sensitivity as calculated by the assay (interpretation of Drug Response Scores): Table 20
How it was run: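 EpCAM+ CTCs isolated after CD45 depletion were plated on PCL electrospun fibre scaffolds and read by RealTime-Glo MT and CellTox Green imaging before and 10 min after drug addition, at 48 h, then re-dosed and read at 96 h. Normalized drug response scores derived per Gupta et al. from start and t96h readouts against blank-well controls.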

[4] = tested on: Circulating tumour cells (CTCs) from a patient with GI cancer (Cholangio Carcinoma, stage 4); experiment: Drug response score assay on blood sample, Example 9; set-up: key to Drug response score from blood sample, conc. 1 / Drug response score from blood sample, conc. 2 / Drug response score from blood sample, conc. 3 / Drug response score from blood sample, conc. 4: normalized drug response metric per Gupta et al. 2020
Method: as §1, §2, §8, §3, §4, §5, §6, §7, §9

| Structure (SMILES) | Drug response score, conc. 1 [1] | Drug response score, conc. 2 [1] | Drug response score, conc. 3 [1] | Drug response score, conc. 4 [1] | Drug sensitivity as calculated by the assay (interpretation of Drug Response Scores) ([1]; synovial sarcoma CTCs) | Drug response score, conc. 1 [2] | Drug response score, conc. 2 [2] | Drug response score, conc. 3 [2] | Drug response score, conc. 4 [2] | Drug sensitivity as calculated by the assay (interpretation of Drug Response Scores) ([2]; renal cancer CTCs) | Drug response score, conc. 1 [3] | Drug response score, conc. 2 [3] | Drug response score, conc. 3 [3] | Drug response score, conc. 4 [3] | effectiveness on Circulating Tumour Cells under laboratory conditions [3] | Drug sensitivity as calculated by the assay (interpretation of Drug Response Scores) [3] | also measured |
| --- | --- | --- | --- | --- | --- | --- | --- | --- | --- | --- | --- | --- | --- | --- | --- | --- | --- |
| CC(=O)O[C@@]12CO[C@@H]1C[C@H](O)[C@@]1(C)C(=O)[C@H](O)C3=C(C)[C@@H](OC(=O)[C@H](O)[C@@H](NC(=O)OC(C)(C)C)c4ccccc4)C[C@@](O)([C@@H](OC(=O)c4ccccc4)[C@H]21)C3(C)C [Docetaxel] | 0.8633 | 0.7451 | 0.6992 | 0.4852 | Sensitive (S+) | 0.0585 | −0.1811 | 0.0514 | −0.1468 | Sensitive (S+) | – | – | – | – | – | – | – |
| COc1cccc2c1C(=O)c1c(O)c3c(c(O)c1C2=O)C[C@@](O)(C(=O)CO)C[C@@H]3O[C@H]1C[C@H](N)[C@H](O)[C@H](C)O1 [Doxorubicin] | 0.9432 | 0.7234 | 0.8842 | 0.8405 | Sensitive (S+) | – | – | – | – | – | 0.7699 | 0.9452 | 0.6229 | 0.7995 | Sensitive S+ | Sensitive (S+) | effectiveness on Circulating Tumour Cells under laboratory conditions ([1]; synovial sarcoma CTCs): marginally less effective compared to other drugs |
| COc1cc([C@@H]2c3cc4c(cc3[C@@H](O[C@@H]3O[C@@H]5CO[C@@H](C)O[C@H]5[C@H](O)[C@H]3O)[C@H]3COC(=O)[C@H]23)OCO4)cc(OC)c1O [Etoposide] | – | – | – | – | – | −0.2179 | −0.1141 | −0.1357 | −0.0050 | Sensitive (S++) | 0.9372 | 0.6295 | 0.9862 | 0.5135 | Sensitive S+ | Sensitive (S+) | effectiveness on Circulating Tumour Cells under laboratory conditions ([2]; renal cancer CTCs): Sensitive S++ |
| O=P1(NCCCl)OCCCN1CCCl (centres unmarked) [Ifosfamide] | 0.7534 | 0.6369 | 0.7555 | 0.5976 | Sensitive (S+) | – | – | – | – | – | 0.7257 | 0.2439 | 0.9228 | 0.3682 | Sensitive S+ | Sensitive (S+) | – |
| CC(=O)O[C@H]1C(=O)[C@@]2(C)[C@H]([C@H](OC(=O)c3ccccc3)[C@]3(O)C[C@H](OC(=O)[C@H](O)[C@@H](NC(=O)c4ccccc4)c4ccccc4)C(C)=C1C3(C)C)[C@]1(OC(C)=O)CO[C@@H]1C[C@@H]2O [Paclitaxel] | – | – | – | – | – | – | – | – | – | – | – | – | – | – | – | – | effectiveness on Circulating Tumour Cells under laboratory conditions ([4]; GI cancer (Cholangio Carcinoma) blood sample): S+; Drug response score from blood sample, conc. 1 ([4]; conc. 1 of each drug as in Table 27, blood sample, t96h): 0.2346; Drug response score from blood sample, conc. 2 ([4]; conc. 2 of each drug as in Table 27, blood sample, t96h): 0.5329; Drug response score from blood sample, conc. 3 ([4]; conc. 3 of each drug as in Table 27, blood sample, t96h): 0.5298; Drug response score from blood sample, conc. 4 ([4]; conc. 4 of each drug as in Table 27, blood sample, t96h): 0.756 |

— US20250290915A1, “METHOD FOR PREDICTING RESPONSIVENESS TO THERAPY” (CANCERTAIN LIMITED, priority 2022, published 2025)
